Results taken from publication PMC10238757 (Pharmacology Research & Perspectives, 2023).
Like-named read-outs stand apart in the source and are kept apart here. Marks after values point to notes of the source that are not given here.

System: healthy participants
Settings: N=6

## C=C(C)[C@@H]1CC[C@]2(NCCN3CCS(=O)(=O)CC3)CC[C@]3(C)[C@H](CC[C@@H]4[C@@]5(C)CC=C(C6=CC[C@@](COc7ncccc7C#N)(C(=O)O)CC6)C(C)(C)[C@@H]5CC[C@]43C)[C@@H]12 [GSK'937]
SAD 10 mg
  Drug-related AEs Grade 3/4, n occurrences (% of cohort): 0
  Drug-related AEs, n occurrences (% of cohort): 3 (17)
  Headache, n occurrences (% of cohort): 1 (17)
  MDSD, n occurrences (% of cohort): 0
SAD 30 mg
  Abdominal pain, n occurrences (% of cohort): 0
  All-cause AEs Grade 2, n occurrences (% of cohort): 1 (17)
  All-cause AEs Grade 3/4, n occurrences (% of cohort): 0
  All-cause AEs, n occurrences (% of cohort): 5 (50)
  Constipation, n occurrences (% of cohort): 2 (33)
  Diarrhea, n occurrences (% of cohort): 0
  Drug-related AEs Grade 2, n occurrences (% of cohort): 1 (17)
  Drug-related AEs Grade 3/4, n occurrences (% of cohort): 0
  Drug-related AEs, n occurrences (% of cohort): 1 (17)
  Headache, n occurrences (% of cohort): 0
  MDSD, n occurrences (% of cohort): 1 (17)
SAD 80 mg
  Abdominal pain, n occurrences (% of cohort): 0
  All-cause AEs Grade 2, n occurrences (% of cohort): 0
  All-cause AEs Grade 3/4, n occurrences (% of cohort): 0
  All-cause AEs, n occurrences (% of cohort): 4 (50) ^f
  Constipation, n occurrences (% of cohort): 0
  Diarrhea, n occurrences (% of cohort): 0
  Drug-related AEs Grade 2, n occurrences (% of cohort): 0
  Drug-related AEs Grade 3/4, n occurrences (% of cohort): 0
  Drug-related AEs, n occurrences (% of cohort): 1 (17)
  Headache, n occurrences (% of cohort): 1 (17)
  MDSD, n occurrences (% of cohort): 0
SAD 320 mg
  Abdominal pain, n occurrences (% of cohort): 1 (17)
  All-cause AEs Grade 2, n occurrences (% of cohort): 1 (17)
  All-cause AEs Grade 3/4, n occurrences (% of cohort): 0
  All-cause AEs, n occurrences (% of cohort): 5 (33)
  Constipation, n occurrences (% of cohort): 0
  Diarrhea, n occurrences (% of cohort): 1 (17)
  Drug-related AEs Grade 2, n occurrences (% of cohort): 0
  Drug-related AEs Grade 3/4, n occurrences (% of cohort): 0
  Drug-related AEs, n occurrences (% of cohort): 4 (17)
  Headache, n occurrences (% of cohort): 0
  MDSD, n occurrences (% of cohort): 0
SAD 640 mg
  Abdominal pain, n occurrences (% of cohort): 1 (17)
  All-cause AEs Grade 2, n occurrences (% of cohort): 2 (17)
  All-cause AEs Grade 3/4, n occurrences (% of cohort): 0
  All-cause AEs, n occurrences (% of cohort): 8 (67)
  Constipation, n occurrences (% of cohort): 1 (17)
  Diarrhea, n occurrences (% of cohort): 1 (17)
  Drug-related AEs Grade 2, n occurrences (% of cohort): 2 (17)
  Drug-related AEs Grade 3/4, n occurrences (% of cohort): 0
  Drug-related AEs, n occurrences (% of cohort): 2 (17)
  Headache, n occurrences (% of cohort): 0
  MDSD, n occurrences (% of cohort): 4 (67)
SAD 800 mg
  Abdominal pain, n occurrences (% of cohort): 0
  All-cause AEs Grade 2, n occurrences (% of cohort): 1 (17)
  All-cause AEs Grade 3/4, n occurrences (% of cohort): 0
  All-cause AEs, n occurrences (% of cohort): 4 (33)
  Constipation, n occurrences (% of cohort): 0
  Diarrhea, n occurrences (% of cohort): 2 (33)
  Drug-related AEs Grade 2, n occurrences (% of cohort): 1 (17)
  Drug-related AEs Grade 3/4, n occurrences (% of cohort): 0
  Drug-related AEs, n occurrences (% of cohort): 2 (33)
  Headache, n occurrences (% of cohort): 0
  MDSD, n occurrences (% of cohort): 1 (17)
